Data on twelve compounds can be found in patent publication US8846705B2, “Diaminopyrimidines as P2X3 and P2X2/3 antagonists” (Roche Palo Alto LLC, priority 2004, dated 2014).

pIC50: −log10 of the molar value. Structures can show the parent of a compound that is named as a salt. Where only a bound is given, the exact number is not on record here.

The target in one data set is T1, rat P2X3 receptor (Rattus norvegicus, UniProt P49654).
T1 sequence (P49654 1-397): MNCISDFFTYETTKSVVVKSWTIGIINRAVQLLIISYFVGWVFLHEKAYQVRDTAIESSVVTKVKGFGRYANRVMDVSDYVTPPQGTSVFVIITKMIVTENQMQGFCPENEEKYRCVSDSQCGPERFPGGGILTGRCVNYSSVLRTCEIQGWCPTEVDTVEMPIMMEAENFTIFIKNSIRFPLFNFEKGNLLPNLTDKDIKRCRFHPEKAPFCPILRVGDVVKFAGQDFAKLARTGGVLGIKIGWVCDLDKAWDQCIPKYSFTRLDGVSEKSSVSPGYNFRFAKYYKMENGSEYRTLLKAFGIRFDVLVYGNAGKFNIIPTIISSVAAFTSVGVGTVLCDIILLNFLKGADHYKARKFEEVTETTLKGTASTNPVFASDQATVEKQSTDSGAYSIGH
Briefly: cell-based.
Procedure: P2X3/P2X2/3 FLIPR (Fluorometric Imaging Plate Reader) Assay
CHO-K1 cells were transfected with cloned rat P2X3 or human P2X2/3 receptor subunits and passaged in flasks. 18-24 hours before the FLIPR experiment, cells were released from their flasks, centrifuged, and resuspended in nutrient medium at 2.5×10^5 cells/ml. The cells were aliquoted into black-walled 96-well plates at a density of 50,000 cells/well and incubated overnight in 5% CO2 at 37° C. On the day of the experiment, cells were washed in FLIPR buffer (calcium- and magnesium-free Hank's balanced salt solution, 10 mM HEPES, 2 mM CaCl2, 2.5 mM probenecid; FB). […]
Test compounds (dissolved in DMSO at 10 mM and serially diluted with FB) or vehicle were added to each well (25 μl of a 4× solution) and allowed to equilibrate for 20 minutes at room temperature. The plates were then placed in the FLIPR and a baseline fluorescence measurement (excitation at 488 nm and emission at 510-570 nm) was obtained for 10 seconds before a 100 μl/well agonist or vehicle addition. […] Fluorescence was measured for an additional 2 minutes at 1 second intervals after agonist addition. A final addition of ionomycin (5 μM, final concentration) was made to each well of the FLIPR test plate to establish cell viability and maximum fluorescence of dye-bound cytosolic calcium. […]
One may read the pIC50 as the negative decadic logarithm of the IC50, by convention in mol/L. High values mean a small IC50, low ones a large IC50. `CC(C)c1cc(O)c(I)cc1Oc1cnc(N)nc1N` [4-(2,4-Diamino-pyrimidin-5-yloxy)-2-iodo-5-isopropyl-phenol] had a pIC50 of approximately 8.30.

Take `COc1cc(C)c(Cc2cnc(N)nc2N)cc1OC` [5-(4,5-Dimethoxy-2-methyl-benzyl)-pyrimidine-2,4-diamine]: the negative-log IC50 (pIC50) was less than 5.00.

Tested on in another data set: not given
Assay: not given
By melting point is commonly meant the temperature of the solid-liquid transition. For `COc1cc(C(C)C)c(Oc2cnc(N)nc2N)cc1-c1ncon1` (as salt: trifluoroacetic acid salt) [Example 57, 5-(2-Isopropyl-4-methoxy-5-[1,2,4]oxadiazol-3-yl-phenoxy)-pyrimidine-2,4-diamine], the melting point fell in the range of 135 to 138.5 °C.

With `CC(C)c1cc2c(cc1Oc1cnc(N)nc1N)OCCN2C` [Example 58, 5-(6-Isopropyl-4-methyl-3,4-dihydro-2H-benzo[1,4]oxazin-7-yloxy)-pyrimidine-2,4-diamine], the melting point lay within 167.3 to 170.1 °C.

For `COc1cc(C(C)C)c(Oc2cnc(N)nc2N)cc1N1CCN(S(C)(=O)=O)CC1` [Example 61, 5-[2-Isopropyl-5-(4-methanesulfonyl-piperazin-1-yl)-4-methoxy-phenoxy]-pyrimidine-2,4-diamine], the melting point is 115 to 117 °C.

The compound `CCc1c(Oc2cnc(N)nc2N)cc(C)c2sccc12` [Example 62, 5-(4-Ethyl-7-methyl-benzo[b]thiophen-5-yloxy)-pyrimidine-2,4-diamine] came in with a melting point of 181 °C.

With `COc1cc(C(C)C)c(Oc2cnc(N[C@H](C)CO)nc2N)cc1Cl` (as salt: hydrochloride) [Compound 120, 2-[4-Amino-5-(5-chloro-2-isopropyl-4-methoxy-phenoxy)-pyrimidin-2-ylamino]-(R)-propan-1-ol], the melting point lay in the range of 111.4 to 116.9 °C.

Consider `Cc1cn(C)c2cc(C(F)(F)F)c(Oc3cnc(N)nc3N)cc12` (as salt: hydrochloride) [Example 63, 5-(1,3-Dimethyl-6-trifluoromethyl-1H-indol-5-yloxy)-pyrimidine-2,4-diamine], for which the melting point worked out at 256 °C.

`Cc1nc2c(C)cc(Oc3cnc(N)nc3N)c(C(C)C)c2o1` (as salt: hydrochloride) [Example 66, 5-(7-Isopropyl-2,4-dimethyl-benzooxazol-6-yloxy)-pyrimidine-2,4-diamine] came in with a melting point of more than 300 °C.

In turn, `COc1cc(C(C)C)c(Oc2cnc(N)nc2N)cc1-c1ccco1` [Example 59, 5-(5-Furan-2-yl-2-isopropyl-4-methoxy-phenoxy)-pyrimidine-2,4-diamine] gave a melting point of 253.7 to 254.6 °C.

As for `Cc1c(C(=O)O)[nH]c2cc(Oc3cnc(N)nc3N)c(C(C)C)cc12` [Example 64, 6-(2,4-Diamino-pyrimidin-5-yloxy)-5-isopropyl-3-methyl-1H-indole-2-carboxylic acid], the melting point is more than 300 °C.

Regarding `CNC(=O)OC[C@@H](C)Nc1ncc(Oc2cc(Cl)c(OC)cc2C(C)C)c(N)n1` (stereo in doubt) [Example 7, Methyl-carbamic acid 2-[4-amino-5-(5-chloro-2-isopropyl-4-methoxy-phenoxy)-pyrimidin-2-ylamino]-propyl ester], the melting point is 63.5 to 69.4 °C.
